Reference: US11761045B2, “Splice variants associated with neomorphic SF3B1 mutants” (Eisai R&D Management Co., Ltd., priority 2015, dated 2023)

Legend:
[1] = test system: Nalm-6 SF3B1^K700E cells; assay: Splice variant levels in Nalm-6 isogenic cells by NanoString assay; type: cell-based, human; settings: 15 nM
Experimental: (§1) A NanoString® assay was developed to quantify aberrant and canonical splice variants and was validated using the same cell panel. For the NanoString® assay, 750 ng of purified total RNA was used as template for the nCounter® (NanoString Technologies®) expression assay using a custom panel of NanoString® probes. The sample preparation was set up as recommended (NanoString® Technologies protocol no. C-0003-02) for an overnight hybridization at 65° C. The following day, samples were processed through the automated nCounter® Analysis System Prep Station using the high sensitivity protocol (NanoString® Technologies protocol no. MAN-00029-05) followed by processing through the nCounter® Analysis System Digital Analyzer (protocol no. MAN-00021-01) using 1150 FOVs for detection. Data was downloaded and analyzed for quality control metrics and normalization using the nSolver™ Analysis Software (NanoString Technologies®). The data was first normalized for lane-to-lane variation using the positive assay controls provided by the manufacturer (NanoString® positive controls A-F [containing in vitro transcribed RNA transcripts at concentrations of 128 fM, 32 fM, 8 fM, 2 fM, 0.5 fM, and 0.125 fM, each pre-mixed with NanoString® Reporter CodeSet probes])). Any samples with normalization factors <0.3 and >3 were not considered for further analysis. This was followed by content normalization using the geo-mean of GAPDH, EEF1A1 and RPLP0. All samples were within the recommended 0.1-10 normalization factor range. Each normalized value was then checked to ensure that it was at least two standard deviations higher than the average of background signal recorded for that lane. Any value below that was considered below detection limit. These normalized values were taken for further bioinformatics and statistical analysis.
(§2) To investigate the broader activity of E7107 on normal and aberrant splicing, RNA from Nalm-6 isogenic cells treated for two and six hours at 15 nM was analyzed by NanoString®. […] Normal and aberrant splicing in the isogenic cell lines was also analyzed by RNA-Seq following treatment with one of additional compounds having formulas 1 or 2. […] For the RNA-Seq analysis, cells were washed with PBS after treatment with E7107 or other test compound, and RNA was isolated using PureLink (Life Technology) as reported in the manufacturer's manual. cDNA library preparation, sequencing and raw read filtering was performed as described in Ren, S. et al. “RNA-Seq analysis of prostate cancer in the Chinese population identifies recurrent gene fusions, cancer-associated long noncoding RNAs and aberrant alternative splicings.” Cell Res 22, 806-821, doi:10.1038/cr.2012.30 (2012).

[2] = test system: Nalm-6 SF3B1^K700K cells; assay: as above; type: cell-based, human; settings: 15 nM
Experimental: as §1, §2

[3] = biological target: SF3B1^K700E (Homo sapiens, UniProt O75533+Q7RTV0, K700E); assay: In vitro splicing assay (IVS), Ad2 pre-mRNA substrate, nuclear extracts; type: biochemical; design: expressed in transfected cells; host or cells: nuclear extract of 293F cells transfected with pFLAG-CMV-2-SF3B1 K700E (the same assay was also run with Nalm-6 SF3B1 K700E nuclear extract); settings: nuclear extracts from Nalm-6 SF3B1^K700E cells or 293F cells expressing Flag-tag SF3B1^K700E
Experimental: E7107 is a small-molecule compound that inhibits splicing by targeting the U2 snRNP-associated complex SF3B (Kotake, Y. et al. “Splicing factor SF3b as a target of the antitumor natural product pladienolide.” Nat Chem Biol 3, 570-575, doi:10.1038/nchembio.2007.16 [2007]).
Nuclear extracts were prepared from 293F cells transfected with pFLAG-CMV-2-SF3B1 plasmids, or from isogenic Nalm-6 cells (SBH Sciences). The plasmids were generated by cloning the mxSF3B1 gene into the HindIII and KpnI sites of pFLAG-CMV2 (Sigma), and the mutations mxSF3B1^K700E, mxsF3B1^R1074H and mxSF3B1^K700E-R1074H were introduced using […]. Cell pellets were resuspended in hypotonic buffer (10 mM HEPES pH 7.9, 1.5 mM MgCl2, 10 mM KCl, 0.2 mM PMSF, and 0.5 mM DTT; for Nalm-6 cells, 40 mM KCl was used). The suspension was brought up to a total of five packed cell volumes (PCV). After centrifugation, the supernatant was discarded, and the cells were brought up to 3 PCV with hypotonic buffer, and incubated on ice for 10 minutes. Cells were lysed using a dounce homogenizer and then centrifuged. […] Protein concentration was determined using NanoDrop 8000 UV-Vis spectrophotometer (Thermo Scientific). […]

CC[C@H](O)[C@@H](C)[C@H]1O[C@@H]1C[C@@](C)(O)/C=C/C=C(\C)[C@H]1OC(=O)C[C@H](O)CC[C@@](C)(O)[C@@H](OC(=O)N2CCN(C3CCCCCC3)CC2)/C=C/[C@@H]1C [Compound E7107]
inhibition of splicing (all isoforms quantified) ([1]; six hours): clear inhibition | inhibition of splicing (gene, WT-associated and MUT-associated isoform expression) ([1]; two hours): partial inhibition of splicing | inhibition of splicing (all isoforms quantified) ([2]; six hours): clear inhibition | inhibition of splicing (gene, WT-associated and MUT-associated isoform expression) ([2]; two hours): partial inhibition of splicing | inhibition of splicing of Ad2 pre-mRNA in nuclear extracts [3]: able to inhibit splicing
